Measured values: patent US5089623A, “Certain imidate insecticides” (Imperial Chemical Industries Plc, priority 1990, dated 1992)

Assays:
Format in all cases: in vivo
[1] = test system: Housefly [Musca domestica]; experiment: Housefly insecticidal test (HF); conditions: per 25 female houseflies, 48 hours
[2] = test system: Tobacco Budworm [Heliothis virescens (Fabricius)] eggs; experiment: Tobacco budworm egg test (TBW-E); conditions: percent in solution
[3] = test system: Cabbage Looper [Trichoplusia ni (Hubner)]; experiment: Cabbage looper test (CL); conditions: second-instar larvae, 3-5 days, percent in solution
[4] = test system: Maize weevil [Sitophilus Zeamais (Motschulsky)]; experiment: Maize weevil test (MW); conditions: adult weevils, treated corn seeds, 48 hours, percent in solution
Method: The compounds in Tables 1 and 2 above were tested for insecticidal activity using the following testing procedures. LC50 values, based on the results of these tests and calculated according to dosage-mortality curves, are expressed in Table 3.
Maize weevil [Sitophilus Zeamais (Motschulsky)]
Test compounds were diluted in a 50:50 acetone:water solution. Four corn seeds [Zea mays (L.)] which had been immersed in test solutions for 2-3 seconds and allowed to dry were placed in containers together with 10 adult weevils. The containers were covered and kept at a temperature of about 25° C. Mortality was recorded after 48 hours. Test concentrations ranged from 0.01% down to that at which 50% mortalilty occurred. The LC50 values are expressed below in Table 3 under the heading "MW" in terms of percent of the test compound in solution.

Row | SMILES | LC50 HF [1] [µg] | LC50 TBW E [2] [%] | LC50 CL [3] [%] | LC50 MW [4] [%]
1 | CC(C)C(=Nc1ccc(F)c(Cl)c1F)OCc1ccc(F)c(Oc2ccc(Cl)cc2)c1 [Compound 395] | 8.6 | 0.018 | < 0.1 | 0.004
2 | Cc1cc(N=C(OCc2ccc(F)c(Oc3ccc(F)cc3)c2)C(C)C)ccc1F [Compound 396] | < 100 | < 0.1 | 0.0017 | > 0.01
3 | Cc1cc(N=C(OCc2cccc(Oc3ccc(Cl)cc3)c2)C(C)C)ccc1F [Compound 397] | < 100 | < 0.1 | 0.0019 | > 0.01
4 | CC(C)C(=Nc1ccc(F)c(Br)c1)OCc1cccc(Oc2ccc(Cl)cc2)c1 [Compound 398] | < 100 | < 0.1 | < 0.1 | > 0.01
5 | Cc1cc(N=C(OCc2ccc(F)c(Oc3ccc(Cl)cc3)c2)C(C)C)ccc1F [Compound 399] | < 100 | 0.025 | 0.0012 | > 0.01
6 | Cc1cc(N=C(OCc2ccc(F)c(Oc3ccccc3)c2)C(C)C)ccc1F [Compound 400] | < 100 | 0.025 | 0.0007 | > 0.01
7 | Cc1cccc(N=C(OCc2ccc(F)c(Oc3ccc(Cl)cc3)c2)C(C)C)c1 [Compound 401] | < 100 | 0.04 | 0.0017 | > 0.01
8 | Cc1ccc(N=C(OCc2cccc(Oc3ccc(F)cc3)c2)C(C)C)cc1Cl [Compound 402] | < 100 | > 0.1 | > 0.1 | > 0.01
9 | Cc1ccc(N=C(OCc2cccc(Oc3ccc(Cl)cc3)c2)C(C)C)cc1Cl [Compound 403] | < 100 | > 0.1 | > 0.1 | > 0.01
10 | Cc1ccc(N=C(OCc2ccc(F)c(Oc3ccc(Cl)cc3)c2)C(C)C)cc1Cl [Compound 404] | < 100 | 0.025 | > 0.1 | > 0.01
11 | Cc1cccc(N=C(OCc2cccc(Oc3ccc(F)cc3)c2)C(C)C)c1 [Compound 405] | < 100 | > 0.1 | > 0.1 | > 0.01
12 | Cc1ccc(N=C(OCc2ccc(F)c(Oc3ccc(Cl)cc3)c2)C(C)C)cc1C [Compound 406] | < 100 | < 0.1 | > 0.1 | > 0.01
13 | Cc1cc(N=C(OCc2ccc(F)c(Oc3ccc(Cl)cc3)c2)C(C)C)ccc1Br [Compound 407] | > 100 | 0.05 | > 0.1 | > 0.01
14 | COc1ccc(N=C(OCc2ccc(F)c(Oc3ccc(F)cc3)c2)C(C)C)cc1Cl [Compound 408] | < 100 | 0.02 | 0.0015 | > 0.01
15 | COc1ccc(N=C(OCc2ccc(F)c(Oc3ccccc3)c2)C(C)C)cc1Cl [Compound 409] | < 100 | 0.025 | 0.0017 | > 0.01
16 | COc1ccc(N=C(OCc2ccc(F)c(Oc3ccc(Cl)cc3)c2)C(C)C)cc1Cl [Compound 410] | < 100 | > 0.1 | > 0.1 | > 0.01

Row | SMILES | LC50 HF [1] [µg] | LC50 TBW E [2] [%] | LC50 CL [3] [%] | LC50 MW [4] [%]
17 | CCc1ccccc1N=C(OCc1cccc(Oc2ccc(F)cc2)c1)C(C)C [Compound 411] | < 100 | > 0.1 | > 0.1 | > 0.01
18 | COc1ccc(N=C(OCc2ccc(F)c(Oc3ccc(Cl)cc3)c2)C(C)C)cc1 [Compound 412] | < 100 | > 0.1 | > 0.1 | > 0.01
19 | CC(C)C(=Nc1ccc(F)c(I)c1)OCc1cccc(Oc2ccc(Cl)cc2)c1 [Compound 413] | < 100 | 0.04 | 0.0007 | > 0.01
20 | CC(C)C(=Nc1ccc(S(C)(=O)=O)cc1)OCc1ccc(F)c(Oc2ccc(F)cc2)c1 [Compound 414] | < 100 | > 0.1 | 0.0024 | > 0.01
21 | C=C(C)C(=Nc1ccc(F)c(Cl)c1)OCc1ccc(F)c(Oc2ccc(Cl)cc2)c1 [Compound 415] | < 100 | 0.035 | 0.00075 | > 0.01
22 | C=C(C)C(=Nc1ccc(F)c(Cl)c1)OCc1ccc(F)c(Oc2ccccc2)c1 [Compound 416] | < 100 | 0.018 | 0.00027 | > 0.01
23 | C=C(C)C(=Nc1ccc(F)c(Cl)c1)OCc1cccc(Oc2ccccc2)c1 [Compound 417] | < 100 | 0.04 | 0.0008 | < 0.01
24 | CC(C)C(=Nc1ccc(OC(F)(F)C(F)Cl)cc1)OCc1cccc(Oc2ccccc2)c1 (centres unmarked) [Compound 418] | > 100 | > 0.1 | > 0.1 | > 0.01
25 | CC(C)C(=Nc1ccc(OC(F)(F)C(F)Cl)cc1)OCc1ccc(F)c(Oc2ccccc2)c1 (centres unmarked) [Compound 419] | > 100 | > 0.1 | > 0.1 | > 0.01
26 | CC(C)C(=Nc1ccc(OCC(F)(F)F)c(Cl)c1)OCc1cccc(Oc2ccc(F)cc2)c1 [Compound 420] | > 100 | 0.05 | 0.00075 | > 0.01
27 | CC(C)C(=Nc1ccc(OCC(F)(F)F)c(Cl)c1)OCc1cccc(Oc2ccc(Cl)cc2)c1 [Compound 421] | > 100 | < 0.1 | 0.002 | > 0.01
28 | CC(C)C(=Nc1ccc(OCC(F)(F)F)cc1)OCc1ccc(F)c(Oc2ccccc2)c1 [Compound 422] | < 100 | 0.05 | 0.00075 | > 0.01
29 | CC(C)C(=Nc1ccc(OCC(F)(F)F)cc1)OCc1cccc(Oc2ccccc2)c1 [Compound 423] | > 100 | > 0.1 | 0.002 | > 0.01
30 | CC(C)C(=Nc1ccc(OCC(F)(F)F)c(Cl)c1)OCc1ccc(F)c(Oc2ccccc2)c1 [Compound 424] | > 100 | 0.035 | 0.00038 | > 0.01
31 | CC(C)C(=Nc1ccc(OCC(F)(F)F)c(Cl)c1)OCc1cccc(Oc2ccccc2)c1 [Compound 425] | > 100 | > 0.1 | 0.00075 | > 0.01
32 | CCOc1cccc(N=C(OCc2ccc(F)c(Oc3ccc(F)cc3)c2)C(C)C)c1 [Compound 426] | > 100 | > 0.1 | 0.002 | > 0.01
